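A five-concentration, 48-hour dose response in 96-well plates underlies each endpoint, interpolated linearly between surrounding concentrations. GI50: concentration for 50% inhibition of growth. TGI: concentration producing complete growth inhibition.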

Holding throughout (test): NCI anticancer screen, dose series, 48 h
In assay [1] the test system is SK-MEL-5 melanoma.
In assay [2] the test system is SK-MEL-28 melanoma.
Assay [3] deals with COLO 205 colon.
Assay [4] has as its system SK-MEL-2 melanoma.
Assay [5] deals with SF-539 CNS.
The subject of assay [6] is CCRF-CEM leukemia.
The test system of assay [7] is NCI-H460 lung.
In assay [8] the test system is SNB-19 CNS.
For assay [9], the system named is M14 melanoma.
Assay [10] has as its system EKVX NSCLC.

Regarding `CN=C(N)/N=C(\N)Nc1cc2ccccc2c2ccccc12`, the TGI in [1] was determined as 30.6 µM; in [2], 34.1 µM; in assay [3], 28.2 µM; in assay [4] it was 32.3 µM; in assay [5], 29.4 µM; in assay [6], 26.1 µM. Further, the TGI in assay [7] turned out to be 24.4 µM; in assay [8], 30.9 µM; in assay [9], 33.4 µM; in [10], 31.8 µM.
Take `CSc1ccc(-c2cc(-c3nc4ccccc4[nH]3)nc(N)c2C#N)cc1`: the TGI in [1] was 29 µM; in [2] it was 53.2 µM; in assay [3], 34.7 µM; in assay [4], 34.2 µM; in assay [5] it was 86 µM; in assay [6] it was 80.1 µM. The TGI in [7] was 72.5 µM; in [8] it was greater than 100 µM; in assay [9], 33.8 µM; in assay [10] it was greater than 100 µM.
With `CCCC1=C(C(=O)OCC)C(c2ccccc2OC)C(C#N)=C(N)O1` (centres undefined), the GI50 in [1] was 23.9 µM; in assay [2], 26.3 µM; in assay [3], 66.3 µM; in [4], greater than 100 µM; in assay [5], 39.8 µM; in assay [6] it was 19.4 µM. The GI50 is 39.8 µM in assay [7], greater than 100 µM in assay [8], 34.2 µM in assay [9] and greater than 100 µM in assay [10]. Further, the TGI was 64.7 µM in assay [1]; 79.4 µM in assay [2]; greater than 100 µM in assay [3]; greater than 100 µM in [4]; greater than 100 µM in assay [5]; 42.1 µM in assay [6]. The TGI in assay [7], in assay [8], in [9] and in assay [10] was greater than 100 µM each time.
On to `C[C@@H](CO)C1=CC(C#C[Si](C)(C)C)N(C(=O)Oc2ccccc2)c2ccccc21` (some centres undefined), for which the TGI in [1] was 30.5 µM; in [2], 36.3 µM; in [3] it was greater than 100 µM; in assay [4], 35.3 µM; in assay [5] it was 41.6 µM; in [6] it was 72.6 µM. The TGI came out at 37.4 µM in [7], 82 µM in assay [8], 35.6 µM in assay [9] and 53.7 µM in assay [10].
As to `O=C1/C(=C/c2ccc(Cl)cc2)N=C(c2ccccc2)N1c1nc2c(Cl)cc(Cl)cc2s1`, the TGI was 57.9 µM in assay [1]; greater than 100 µM in [2]; greater than 100 µM in assay [3]; 55.5 µM in [4]; 46.1 µM in [5]; 20.7 µM in [6]. The TGI in assay [7] is greater than 100 µM; in assay [8], greater than 100 µM; in assay [9], greater than 100 µM; in assay [10], 68.9 µM.
As to `O=C(NCCNc1nccc(-c2c(-c3cccc(O)c3)nc3sccn23)n1)Nc1cccc(C(F)(F)F)c1`, the GI50 in assay [1] is 2.62 µM; in assay [2] it was 2.68 µM; in [3] it was 3.36 µM; in assay [4], 2.8 µM; in assay [5] it was 13.1 µM; in assay [6], 3.25 µM. Further, the GI50 in assay [7] was 4.79 µM; in assay [8] it was 5.09 µM; in [9], 1.79 µM; in [10], 4.16 µM. For the same molecule, the TGI in assay [1] came to 8.43 µM; in assay [3] it was 12 µM; in assay [4], 6.07 µM; in [5] it was 36.9 µM; in [6], 13.7 µM; in [7], 20.8 µM. Besides, the TGI is 36.2 µM in [8], 3.39 µM in [9] and 36.6 µM in assay [10].

For the origin of these results see PubChem BioAssay (NCI).
